Results: PMC4501791, “Molecular Design, Synthesis and Trypanocidal Activity of Dipeptidyl Nitriles as Cruzain Inhibitors” (PLoS Neglected Tropical Diseases, 2015)

Key:
cruzain = target: T1, cruzain (Trypanosoma cruzi, UniProt P25779); assay: biochemical; conditions: 37°C, pH 5.5, substrate Z-FR-AMC;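 further: fluorometric read-out of substrate hydrolysis at excitation 355 nm and emission 460 nm, initial rates over 5 min, Ki from nonlinear kinetic fits, duplicate runs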
T1 construct: made in house
Description: Enzyme kinetic assays were carried out at 37°C in 200 L of a solution containing 100 mM acetate buffer pH 5.5, 300 mM NaCl, 5 mM DTT (dithiothreitol), 5% v/v DMSO (dimethyl sulfoxide), 0.01% v/v Triton X-100 and 0.15 nM cruzain, using Corning® 96-well black flat bottom microplates. The rate of the reaction was monitored using a Biotek Synergy HT plate reader through the fluorescence emission at 460 nm (excitation at 355 nm) due to the hydrolysis of the substrate Z-Phe-Arg-7-amido-4-methylcoumarin (Z-FR-AMC, Sigma-Aldrich). The enzyme stock aliquot was rapidly thawed at 37°C and kept on ice until activation, in which it was incubated for 20 min. in the assay buffer (100 mM acetate pH 5.5 and 5 mM DTT) followed by additional 2 min. incubation with inhibitors before the reaction was started by the addition of the substrate.
Visual inspection and a pre-reading of plate wells were performed to check for possible precipitation and background fluorescence, respectively. Fluorescence emission spectra were also recorded for all inhibitors, using the same excitation wavelength (355 nm) as for the fluorometric assay. […] The reaction was started by the addition of varying concentrations of the substrate and the wells monitored for a total of 5 minutes of reaction. The initial velocities of the substrate hydrolysis under first-order reaction were calculated by Gen5 Biotek software based on the linear-regression coefficient from the fit to data of Relative Fluorescence Unit (mRFU) as a function of time (min).
Each experiment was performed in duplicates for each compound being tested. […] All inhibitors were evaluated in two different concentrations, which were chosen based on a previous screening (percentage of inhibition) at 1.7 μM substrate (~K M). […] SigmaPlot (v. 10.0) was employed for the non-linear fit and the kinetic parameters determination.

[1] = test system: T. cruzi Tulahuen strain amastigotes; assay: Trypanocidal activity against amastigote forms in LLCMK2 cells, Tulahuen strain; assay type: cell-based; conditions: T. cruzi Tulahuen strain; for killing at 32 µM / EC50: Trypanosoma cruzi; for killing at 32 µM: LLC-MK2, 120 h, read-out: %cell lysis at 32 μM ama Tula; for killing at 32 µM / %cell lysis at 32 μM ama Tula: amastigote lysis, 5 days; for EC50: LLC-MK2, read-out: pEC50 ama Tula (converted); for EC50 / pEC50 ama Tula: amastigote
Description: (§1) The assays against amastigote forms were performed in LLCMK2 cells. Previously, the cells were cultivated in 96-wells microplates (10^3 cells/well). […] After this, the microplates were incubated at 37°C, in CO2 atmosphere, for 5 days. Then, 10 μL of FluoReporter lacZ/Galactosidase Quantitative Kit (Life Technologies) were added and after 30 minutes the fluorometric reaction was read in a microplate reader (Synergy H1, Biotek) at 386 nm excitation and 448 nm emission. For both assays the percentage of parasite lysis was determined from the following formula: %lysis = 100 –{[(X-PC)/(PC-NC)]x100}, where the optical density values of the samples (X), the positive controls (PC) and negative controls (NC) were used. Culture medium was used as positive control (PC) and medium with 0.6% DMSO (v/v) as negative control (NC). All assays were performed in triplicate with two independent experiments.

[2] = test system: T. cruzi CL-Brener strain amastigotes; assay: Trypanocidal activity against amastigote forms in LLCMK2 cells, CL-Brener strain; assay type: cell-based; conditions: 5 days; for killing at 32 µM: Trypanosoma cruzi, LLC-MK2, 120 h, amastigote lysis, read-out: %cell lysis at 32 μM ama Brener
Description: as §1

LLCMK2 cells = assay: Lysis of LLCMK2 host cells; assay type: cell-based; conditions: for cytotoxicity at 32 µM: Macaca mulatta, LLC-MK2, 32 μM, read-out: %cell lysis at 32 μM LLCMK2

T1 sequence (P25779 123-337 limits assumed): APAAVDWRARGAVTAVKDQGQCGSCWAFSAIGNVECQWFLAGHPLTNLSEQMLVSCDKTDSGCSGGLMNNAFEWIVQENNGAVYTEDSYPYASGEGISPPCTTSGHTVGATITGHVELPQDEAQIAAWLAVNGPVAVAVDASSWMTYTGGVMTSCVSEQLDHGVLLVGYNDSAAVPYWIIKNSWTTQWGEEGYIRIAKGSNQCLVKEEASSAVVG

| SMILES | Ki (cruzain) [µM] | killing at 32 µM [1] [%] | killing at 32 µM [2] [%] | melting point [°C] | cytotoxicity at 32 µM (LLCMK2 cells) [%] | other results |
| --- | --- | --- | --- | --- | --- | --- |
| N#CC1(NC(=O)[C@H](Cc2ccccc2)NC(=O)c2ccccc2)CC1 [Compound 7, (2S)-N-(1-cyanocyclopropyl)-3-phenyl-2-(phenylformamido)propanamide] | 0.251 | 16 ± 10 |  |  |  | EC50 [1]: 126 µM |
| CC(C)(C#N)NC(=O)[C@H](Cc1ccccc1)NC(=O)c1ccccc1 [Compound 8, (2S)-N-(1-cyano-1-methylethyl)-3-phenyl-2-(phenylformamido)propanamide] | 3.16 |  |  |  |  |  |
| N#CCNC(=O)[C@H](Cc1cccc(Cl)c1)NC(=O)c1ccccc1 [Compound 9, (2S)-3-(3-chlorophenyl)-N-(cyanomethyl)-2-(phenylformamido)propanamide] | 0.251 | 17 ± 2 | 24 ± 1 | 176 to 178 | 12 ± 1 | EC50 [1]: 100 µM |
| N#CCNC(=O)[C@H](Cc1ccc(O)cc1)NC(=O)c1ccccc1 [Compound 10, (2S)-N-(cyanomethyl)-3-(4-hydroxyphenyl)-2-(phenylformamido)propanamide] | 0.2 | 32 ± 4 | 18 ± 1 | 209 to 210 | 18 ± 3 | EC50 [1]: 200 µM |
| N#CCNC(=O)[C@H](Cc1ccc(OC(=O)c2ccccc2)cc1)NC(=O)c1ccccc1 [Compound 11, 4-[(2S)-2-[(cyanomethyl)carbamoyl]-2-(phenylformamido)ethyl]phenyl benzoate] | 1.26 | 16 ± 6 | 17 ± 1 | 254 to 256 | 8 ± 5 | EC50 [1]: > 316 µM |
| N#CCNC(=O)[C@H](CCCNC(=N)N)NC(=O)c1ccccc1 [Compound 13, (2S)-5-carbamimidamido-N-(cyanomethyl)-2-(phenylformamido)pentanamide] | 126 |  |  | 117 to 118 |  |  |
| N#CCNC(=O)[C@H](Cc1ccccc1)NC(=O)C(F)(F)F [Compound 15, (2S)-N-(cyanomethyl)-3-phenyl-2-(trifluoroacetamido)propanamide] | 3.98 |  |  |  |  |  |
| N#CCNC(=O)[C@H](Cc1ccccc1)NC(=O)c1cccs1 [Compound 16, (2S)-N-(cyanomethyl)-3-phenyl-2-(thiophen-2-ylformamido)propanamide] | 0.794 | 30 ± 11 | 24 ± 2 |  | 19 ± 4 | EC50 [1]: 63.1 µM |
| N#CCNC(=O)[C@H](Cc1ccccc1)NC(=O)c1cnccn1 [Compound 19, (2S)-N-(cyanomethyl)-3-phenyl-2-(pyrazin-2-ylformamido)propanamide] | 1.58 | 22 ± 7 | 21 ± 8 |  | 14 ± 1 | EC50 [1]: 79.4 µM |
| N#CCNC(=O)[C@H](Cc1ccccc1)NC(=O)c1cncc(Br)c1 [Compound 20, (2S)-2-[(5-bromopyridin-3-yl)formamido]-N-(cyanomethyl)-3-phenylpropanamide] | 0.251 | 0 | 25 ± 8 |  | 17 ± 1 |  |
| Cn1nc(C(C)(C)C)cc1C(=O)N[C@@H](Cc1ccccc1)C(=O)NCC#N [Compound 21, (2S)-2-[(3-tert-butyl-1-methyl-1H-pyrazol-5-yl)formamido]-N-(cyanomethyl)-3-phenylpropanamide] | 0.0631 |  |  | 160 to 162 |  |  |
| Cn1nc(C(F)(F)F)cc1C(=O)N[C@@H](Cc1ccccc1)C(=O)NCC#N [Compound 22] |  |  |  |  |  | %cell lysis at 32 μM ama Brener [2]: 20 ± 2%; pKi (cruzain): 6.3; %cell lysis at 32 μM LLCMK2 (LLCMK2 cells): 19 ± 0.4%; %cell lysis at 32 μM ama Tula [1]: 48 ± 4%; pEC50 ama Tula [1]: 4.0 |
| N#CCNC(=O)[C@H](Cc1ccccc1)NC(=O)c1cc(=O)[nH]c(=O)[nH]1 [Compound 23, (2S)-N-(cyanomethyl)-2-[(2,6-dioxo-1,2,3,6-tetrahydropyrimidin-4-yl)formamido]-3-phenyl propanamide] |  |  |  |  |  | %cell lysis at 32 μM ama Brener [2]: 27 ± 1%; pKi (cruzain): 5.9; %cell lysis at 32 μM LLCMK2 (LLCMK2 cells): 22 ± 5%; %cell lysis at 32 μM ama Tula [1]: 0% |
| N#CCNC(=O)[C@H](Cc1ccccc1)NC(=O)OCc1ccccc1 [Compound 24, Benzyl N-[(1S)-1-[(cyanomethyl)carbamoyl]-2-phenylethyl]carbamate] | 0.501 |  |  |  |  |  |
| CC(C)(C)OC(=O)N[C@@H](Cc1ccccc1)C(=O)NCC#N [Compound 25, Tert-butyl-N-[(1S)-1-[(cyanomethyl)carbamoyl]-2-phenylethyl]carbamete] |  |  |  |  |  | %cell lysis at 32 μM ama Brener [2]: 23 ± 2%; pKi (cruzain): 5.6; %cell lysis at 32 μM LLCMK2 (LLCMK2 cells): 31 ± 2%; %cell lysis at 32 μM ama Tula [1]: 37 ± 1%; pEC50 ama Tula [1]: 4.1 |
| CC(C)C[C@H](NC(=O)OC(C)(C)C)C(=O)NCC#N [Compound 27, tert-butyl N-[(1S)-1-[(cyanomethyl)carbamoyl]-3-methylbutyl]carbamate] | 1.26 | 0 | 19 ± 3 |  | 0 |  |
| CC(C)C[C@H](NC(=O)c1cc(C(C)(C)C)nn1C)C(=O)NC1(C#N)CC1 [Compound 30, (2S)-2-[(3-tert-butyl-1-methyl-1H-pyrazol-5-yl)formamido]-N-(1-cyanocyclopropyl)-4-methylpentanamide] | 0.0251 |  | 11 ± 6 |  |  |  |
| CC(C)C[C@H](NC(=O)OC(C)(C)C)C(=O)NC1(C#N)CC1 [Compound 31, tert-butyl N-[(1S)-1-[(1-cyanocyclopropyl)carbamoyl]-3-methylbutyl]carbamate] | 0.631 |  |  |  |  |  |
| CC(C)(C)C[C@H](NC(=O)c1ccccc1)C(=O)NC1(C#N)CC1 [Compound 32, (2S)-N-(1-cyanocyclopropyl)-4,4-dimethyl-2-(phenylformamido)pentanamide] | 25.1 |  |  | 186 to 187 |  |  |
| Cn1nc(C(F)(F)F)cc1C(=O)N[C@@H](Cc1ccccc1)C(=O)NC1(C#N)CC1 [Compound 33, (2S)-N-(1-cyanocyclopropyl)-2-{[1-methyl-3-(trifluoromethyl)-1H-pyrazol-5-yl]formamido}-3-phenylpropanamide] | 0.398 |  | 22 ± 10 | 211 to 212 |  |  |
| Cn1nc(C(C)(C)C)cc1C(=O)N[C@@H](Cc1ccccc1)C(=O)NC1(C#N)CC1 [Compound 34, (2S)-2-[(5-tert-butyl-2-methylpyrazol-3-yl)formamido]-N-(1-cyanocyclopropyl)-3-phenylpropanamide] | 0.0631 | 0 | 23 ± 3 |  | 17 ± 3 |  |
| N#CC1(NC(=O)[C@H](Cc2ccccc2)NC(=O)c2cnccn2)CC1 [Compound 35, (2S)-N-(1-cyanocyclopropyl)-3-phenyl-2-(pyrazin-2-ylformamido)propanamide] | 0.501 |  |  | 162 to 164 |  |  |
| N#Cc1cccc(C[C@H](NC(=O)c2ccccc2)C(=O)NC2(C#N)CC2)c1 [Compound 36, (2S)-N-(1-cyanocyclopropyl)-3-(3-cyanophenyl)-2-(phenylformamido)propanamide] | 3.98 |  |  | 191 to 194 |  |  |
| N#CC1(NC(=O)C2(NC(=O)c3ccccc3)CCCC2)CC1 [Compound 37] |  |  |  |  |  | %cell lysis at 32 μM ama Brener [2]: 8 ± 3%; pKi (cruzain): 4.9; %cell lysis at 32 μM LLCMK2 (LLCMK2 cells): 26 ± 3%; %cell lysis at 32 μM ama Tula [1]: 34 ± 5%; pEC50 ama Tula [1]: 4.1 |
